Source: US20060122175A1, “Benzdioxane piperazine derivatives with a combination of affinity for dopamine-D2 receptors and serotonin reuptake sites” (SOLVAY PHARMACEUTICALS B.V., priority 2004, published 2006)
Structures can show the parent of a compound that is named as a salt.

Assays:
[1] = molecular target: T1, dopamine-D2 receptors (Rattus norvegicus, UniProt P61169); test: In vitro affinity for dopamine-D2 receptors ([3H]-spiroperidol receptor binding assay); conditions: average values from three independent experiments
T1 construct: labels dopamine receptors in rat pituitary and brain; from tissue; host or cells: rat pituitary and brain (per the title of the cited method)
T1 sequence (P61169 whole entry): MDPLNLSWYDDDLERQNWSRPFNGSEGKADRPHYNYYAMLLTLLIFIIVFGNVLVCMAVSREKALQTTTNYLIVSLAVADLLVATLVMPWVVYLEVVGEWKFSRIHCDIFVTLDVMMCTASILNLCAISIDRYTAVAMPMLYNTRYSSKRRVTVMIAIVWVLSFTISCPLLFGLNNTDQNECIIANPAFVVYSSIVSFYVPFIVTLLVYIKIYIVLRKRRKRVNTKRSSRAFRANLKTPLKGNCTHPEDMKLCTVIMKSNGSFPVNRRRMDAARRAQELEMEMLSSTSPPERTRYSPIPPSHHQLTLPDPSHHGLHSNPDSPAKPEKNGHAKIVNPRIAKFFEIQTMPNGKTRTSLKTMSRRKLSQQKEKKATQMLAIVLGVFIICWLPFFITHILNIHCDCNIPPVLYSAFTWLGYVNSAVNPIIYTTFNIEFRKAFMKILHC
Experimental: The affinity of the compounds of the invention for dopamine-D2 receptors and serotonine reuptake sites was determined as described above. […] Pharmacokinetic, pharmacodynamic, and other considerations may alter the dose actually administered to a higher or lower value. The dosage expediently administered is 0.001-1000 mg/kg, preferably 0.1-100 mg/kg of patient's bodyweight.
(§1) The results in the table below were obtained according to the methods described above. Binding data are average values from three independent experiments.

[2] = tested on: serotonin reuptake; test: Potentiation of 5-HTP induced behaviour in mice; conditions: Mus musculus, po, read-out: in vivo activity 5-HT reuptake 5-HTP** ED50 mg/kg po
Excerpt: The compounds show activity as antagonists at dopamine D2 receptors as they potentially antagonize apomorphine-induced climbing behaviour in mice (B. Costall et al., ‘Climbing behaviour induced by apomorphine in mice: a potential model for the detection of neuroleptic activity’, Eur. J. Pharmacol., 1978, 1, 39-50). The compounds also show activity as inhibitors of serotonin reuptake, as they potentiate 5-HTP induced behaviour in mice (B. L. Jacobs., ‘An animal behaviour model for studying central serotonergic synapses’, Life Sci., 1976, 19(6), 777-785). The compounds are active in therapeutic models sensitive to clinically relevant antipsychotics (e.g. the conditioned avoidance response; Van der Heyden & Bradford, Behav. Brain Res., 1988, 31:61-67) and antidepressants or anxiolytics (e.g. suppression of stress-induced vocalization; van der Poel et al., Psychopharmacology, 1989, 97: 147-148). In contrast to clinically relevant dopamine D2 receptor antagonists the described compounds have a low propensity to induce catalepsy in rodents and as such are likely to induce less extrapyramidal side effects than existing antipsychotic agents. The inhibitory activity of serotonin reuptake inherent in these compounds may be responsible for the therapeutic effects observed in behavioural models sensitive to either antidepressants or anxiolytics. The compounds can be used for the treatment of affections or diseases of the central nervous system caused by disturbances in either the dopaminergic or serotonergic systems, for example: aggression, anxiety disorders, autism, vertigo, depression, disturbances of cognition or memory, Parkinson's disease, and in particular schizophrenia and other psychotic disorders.

[3] = tested on: dopamine D2 receptors; test: Antagonism of apomorphine-induced climbing behaviour in mice (APO-climb); conditions: Mus musculus, po, read-out: in vivo activity Dopamine-D2 APO-climb* ED50 mg/kg po
[4] = molecular target: T2, serotonin reuptake sites (Rattus norvegicus, UniProt P31652); test: In vitro affinity for serotonin reuptake sites ([3H]-paroxetine receptor binding assay); conditions: average values from three independent experiments; read-out: in vitro affinity 5-HT reuptake binding Ki
T2 construct: from tissue; host or cells: rat cortical membranes (per the title of the cited method)
T2 sequence (P31652 whole entry): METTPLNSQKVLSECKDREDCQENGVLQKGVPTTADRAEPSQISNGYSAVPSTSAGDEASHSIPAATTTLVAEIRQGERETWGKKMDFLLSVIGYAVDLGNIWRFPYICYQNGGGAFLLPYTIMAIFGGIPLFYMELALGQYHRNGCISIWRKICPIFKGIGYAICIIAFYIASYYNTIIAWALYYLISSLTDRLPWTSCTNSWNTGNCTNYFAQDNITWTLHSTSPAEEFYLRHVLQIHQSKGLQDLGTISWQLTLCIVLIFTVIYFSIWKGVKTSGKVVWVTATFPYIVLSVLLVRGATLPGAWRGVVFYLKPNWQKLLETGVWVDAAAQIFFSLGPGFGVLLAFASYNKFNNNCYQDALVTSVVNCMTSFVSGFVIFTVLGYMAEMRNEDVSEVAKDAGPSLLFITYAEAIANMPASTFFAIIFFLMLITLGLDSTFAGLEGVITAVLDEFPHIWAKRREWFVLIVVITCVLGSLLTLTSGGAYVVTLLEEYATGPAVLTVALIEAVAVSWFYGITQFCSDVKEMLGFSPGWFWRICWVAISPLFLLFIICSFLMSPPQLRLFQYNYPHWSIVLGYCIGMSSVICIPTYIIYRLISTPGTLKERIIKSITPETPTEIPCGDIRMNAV
Experimental: The affinity of the compounds of the invention for dopamine-D2 receptors and serotonine reuptake sites was determined as described above. From the binding affinity measured for a given compound of formula (1), one can estimate a theoretical lowest effective dose. […] Converting that concentration to mg of compound per kg of patient yields a theoretical lowest effective dose, assuming ideal bioavailability. Pharmacokinetic, pharmacodynamic, and other considerations may alter the dose actually administered to a higher or lower value. The dosage expediently administered is 0.001-1000 mg/kg, preferably 0.1-100 mg/kg of patient's bodyweight.
as §1

Compound	Ki [1]	melting point	ED50 [2]	other results
COc1ccc2[nH]cc(CCCN3CCN(c4cccc5c4OCCO5)CC3)c2c1 [Compound 5h, 3-{3-[4-(2,3-Dihydro-benzo[1,4]dioxin-5-yl)-piperazin-1-yl]-propyl}-5-methoxy-1H-indole]	5 ± 4 nM	–	–	–
Fc1cccc2c(CCCN3CCN(c4cccc5c4OCCO5)CC3)c[nH]c12 [Compound 5g, 3-{3-[4-(2,3-Dihydro-benzo[1,4]dioxin-5-yl)-piperazin-1-yl]-propyl}-7-fluoro-1H-indole]	10.6 ± 4 nM	–	28.4 mg/kg	–
Clc1ccc2[nH]cc(CCCN3CCN(c4cccc5c4OCCO5)CC3)c2c1 (as salt: fumaric acid salt) [Compound 5j, 3-{3-[4-(2,3-Dihydro-benzo[1,4]dioxin-5-yl)-piperazin-1-yl]-propyl}-5-chloro-1H-indole]	–	61 to 63 °C	–	–
c1cc2c(c(N3CCN(Cc4c[nH]c5ccccc45)CC3)c1)OCCO2 [Compound 5a, 3-[4-(2,3-Dihydro-benzo[1,4]dioxin-5-yl)-piperazin-1-yl-methyl]-1H-indole]	–	85 to 86 °C	–	–
Cc1cccc2c(CCCN3CCN(c4cccc5c4OCCO5)CC3)c[nH]c12 [Compound 5n, 3-{3-[4-(2,3-Dihydro-benzo[1,4]dioxin-5-yl)-piperazin-1-yl]-propyl}-7-methyl-1H-indole]	15.9 ± 4.7 nM	–	–	–
Fc1ccc2[nH]cc(CCCN3CCN(c4cccc5c4OCCO5)CC3)c2c1 [Compound 5e, 3-{3-[4-(2,3-Dihydro-benzo[1,4]dioxin-5-yl)-piperazin-1-yl]-propyl}-5-fluoro-1H-indole]	19 ± 3 nM	–	2 mg/kg	–
c1cc2c(c(N3CCN(CCCc4c[nH]c5ccccc45)CC3)c1)CCCO2 [Compound 14, 3-[3-(4-chroman-5-yl-piperazine-1-yl)-propyl]-1H-indole]	20.3 ± 2.7 nM	–	–	–
Clc1cccc2c(CCCN3CCN(c4cccc5c4OCCO5)CC3)c[nH]c12 [Compound 5l, 3-{3-[4-(2,3-Dihydro-benzo[1,4]dioxin-5-yl)-piperazin-1-yl]-propyl}-7-chloro-1H-indole]	15.5 ± 5.4 nM	–	–	–
Clc1ccc2[nH]cc(CCCN3CCN(c4cccc5c4OCCO5)CC3)c2c1 [Compound 5j, 3-{3-[4-(2,3-Dihydro-benzo[1,4]dioxin-5-yl)-piperazin-1-yl]-propyl}-5-chloro-1H-indole]	31.6 ± 16 nM	–	–	Ki [4]: 1.4 ± 0.7 nM
Cc1ccc2[nH]cc(CCCN3CCN(c4cccc5c4OCCO5)CC3)c2c1 [Compound 5m, 3-{3-[4-(2,3-Dihydro-benzo[1,4]dioxin-5-yl)-piperazin-1-yl]-propyl}-5-methyl-1H-indole]	–	–	–	Ki [4]: 1.3 ± 0.9 nM
Fc1ccc2c(CCCN3CCN(c4cccc5c4OCCO5)CC3)c[nH]c2c1 [Compound 5f, 3-{3-[4-(2,3-Dihydro-benzo[1,4]dioxin-5-yl)-piperazin-1-yl]-propyl}-6-fluoro-1H-indole]	–	–	30 mg/kg	ED50 [3]: 9 mg/kg
Clc1cccc2[nH]cc(CCCN3CCN(c4cccc5c4OCCO5)CC3)c12 [Compound 5i, 3-{3-[4-(2,3-Dihydro-benzo[1,4]dioxin-5-yl)-piperazin-1-yl]-propyl}-4-chloro-1H-indole]	24 ± 3 nM	–	–	–

More lines, main results first:

Ki [1]	melting point	Compound	ED50 [2]	other results
9.1 ± 1.8 nM	–	c1cc2c(c(N3CCN(CCCCCc4c[nH]c5ccccc45)CC3)c1)OCCO2 [Compound 5c, 3-{5-[4-(2,3-Dihydro-benzo[1,4]dioxin-5-yl)-piperazin-1-yl]-pentyl}-1H-indole]	–	–
–	215 to 217 °C (dec.)	Cc1ccc2[nH]cc(CCCN3CCN(c4cccc5c4OCCO5)CC3)c2c1 (as salt: fumaric acid salt) [Compound 5m, 3-{3-[4-(2,3-Dihydro-benzo[1,4]dioxin-5-yl)-piperazin-1-yl]-propyl}-5-methyl-1H-indole]	–	–
–	205 to 206 °C	Fc1ccc2c(CCCN3CCN(c4cccc5c4OCCO5)CC3)c[nH]c2c1 (as salt: fumaric acid salt) [Compound 5f, 3-{3-[4-(2,3-Dihydro-benzo[1,4]dioxin-5-yl)-piperazin-1-yl]-propyl}-6-fluoro-1H-indole]	–	–
21 ± 9.9 nM	150 to 152 °C	c1cc2c(c(N3CCN(CCCc4c[nH]c5ccccc45)CC3)c1)OCCO2 [Compound 5b, 3-{3-[4-(2,3-Dihydro-benzo[1,4]dioxin-5-yl)-piperazin-1-yl]-propyl}-1H-indole]	22 mg/kg	ED50 [3]: 10 mg/kg
8.1 ± 3.1 nM	207 to 208 °C	Fc1cccc2[nH]cc(CCCN3CCN(c4cccc5c4OCCO5)CC3)c12 [Compound 5d, 3-{3-[4-(2,3-Dihydro-benzo[1,4]dioxin-5-yl)-piperazin-1-yl]-propyl}-4-fluoro-1H-indole]	32 mg/kg	ED50 [3]: 13 mg/kg
2.1 ± 1 nM	–	Clc1ccc2c(CCCN3CCN(c4cccc5c4OCCO5)CC3)c[nH]c2c1 [Compound 5k, 3-{3-[4-(2,3-Dihydro-benzo[1,4]dioxin-5-yl)-piperazin-1-yl]-propyl}-6-chloro-1H-indole]	86 mg/kg	ED50 [3]: 4.5 mg/kg
